Measurements from patent publication US12668591B2, “1,2,4-oxadiazole derivatives as histone deacetylase 6 inhibitors” (Oryzon Genomics, S.A., priority 2017, dated 2026).

Target: T1, HDAC6 (Homo sapiens, UniProt Q9UBN7)
T1 sequence (Q9UBN7 1-1215): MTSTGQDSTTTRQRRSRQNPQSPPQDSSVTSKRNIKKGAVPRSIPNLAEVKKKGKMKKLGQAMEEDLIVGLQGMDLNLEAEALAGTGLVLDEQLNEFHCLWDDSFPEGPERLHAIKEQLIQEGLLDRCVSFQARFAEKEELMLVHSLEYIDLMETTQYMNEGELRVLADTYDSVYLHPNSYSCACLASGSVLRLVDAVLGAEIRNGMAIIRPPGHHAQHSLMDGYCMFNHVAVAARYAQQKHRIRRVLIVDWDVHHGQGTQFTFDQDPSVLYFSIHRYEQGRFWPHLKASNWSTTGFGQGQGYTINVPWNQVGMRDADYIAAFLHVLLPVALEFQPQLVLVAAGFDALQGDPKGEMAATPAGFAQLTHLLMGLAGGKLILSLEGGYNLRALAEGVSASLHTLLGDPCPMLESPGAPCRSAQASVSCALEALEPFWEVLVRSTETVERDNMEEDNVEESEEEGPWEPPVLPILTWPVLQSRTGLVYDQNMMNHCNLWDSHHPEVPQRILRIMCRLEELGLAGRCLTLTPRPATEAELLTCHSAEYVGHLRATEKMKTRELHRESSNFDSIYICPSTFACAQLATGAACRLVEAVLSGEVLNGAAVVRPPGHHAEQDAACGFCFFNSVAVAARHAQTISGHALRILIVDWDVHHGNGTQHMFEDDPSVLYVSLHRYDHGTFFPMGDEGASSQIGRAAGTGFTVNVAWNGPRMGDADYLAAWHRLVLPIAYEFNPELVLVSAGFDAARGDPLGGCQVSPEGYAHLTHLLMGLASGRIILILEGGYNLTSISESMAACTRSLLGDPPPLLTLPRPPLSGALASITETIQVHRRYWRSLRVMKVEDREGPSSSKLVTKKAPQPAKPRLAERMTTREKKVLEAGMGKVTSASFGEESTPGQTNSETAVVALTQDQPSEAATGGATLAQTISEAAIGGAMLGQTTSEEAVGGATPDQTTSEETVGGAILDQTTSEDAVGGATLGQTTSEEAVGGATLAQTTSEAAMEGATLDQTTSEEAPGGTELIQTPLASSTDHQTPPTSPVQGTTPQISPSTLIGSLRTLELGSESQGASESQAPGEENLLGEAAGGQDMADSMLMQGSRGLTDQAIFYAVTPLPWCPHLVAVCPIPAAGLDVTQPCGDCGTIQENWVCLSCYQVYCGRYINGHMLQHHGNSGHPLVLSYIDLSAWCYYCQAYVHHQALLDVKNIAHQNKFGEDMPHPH
Assay: In vitro cell-based assay: acetylation levels of Alpha-Tubulin by Western Blot in MOLP8 cells
Design: endogenous in cells; host or cells: MOLP8
Details: 18 h, acetyl-alpha-tubulin relative band intensity, ACY-1215 1 μM = 100%
Protocol: In Vitro Cell-Based Assay
In order to determine the cellular activity of HDAC6 upon treatment with HDAC6 inhibitors, acetylation levels of Alpha-Tubulin (a HDAC6-specific substrate) were measured by Western Blot. For this, MOLP8 cells were seeded in 6-well plates at a cell density of 500.000 cells/well and treated with the selected compounds at 5 and 1 μM for 18 h at 37° C. and 5% CO2 in a humidified tissue culture incubator. Consecutively, cell pellets were collected and whole protein extracts prepared using RIPA buffer (SIGMA) supplemented with 1× protease inhibitors (cOmplete mini, Roche). Protein concentration was determined with Bradford's reagent (Bio-Rad) as per manufacturer's instructions, and 7 μg of total protein were loaded into pre-cast 10% NuPAGE Novex gels (Life Technologies). Gels were run in […] (Life Technologies) and proteins were transferred using the iBlot 2 Dry Blotting System (Life Technologies). Blots were subsequently rinsed in distilled water and stained with Ponceau S solution (SIGMA). Blots were then washed in distilled water to remove Ponceau excess and scanned with the Epson Perfection V600 Photo professional Scanner. After this, blots were de-stained and blocked in 5% milk/PBS-Tween 0.1% for 1 h at room temperature followed by incubation with anti-Acetyl-alpha Tubulin (SIGMA cat. #T7451, 1:10.000 dilution) and anti-Beta-actin (SIGMA, cat. #A5316, 1:2.000 dilution) primary antibodies in 5% milk/PBS-T 0.1%, overnight at 4° C. on a shaking platform. After incubation, blots were washed 3 times for 5 minutes each in PBS-Tween 0.5% and incubated with anti-mouse HRP-conjugated secondary antibody (Jackson Immuno Research, cat. #115-035-068) at 1:8.000 in 5% milk/PBS-Tween 0.1%, 1 h at room temperature on a shaking platform. After 3 washes of 5 minutes each with PBS-Tween 0.5% and 1 wash in PBS 1×, blots were developed with ECL Plus (GE Healthcare) and the chemiluminescent reaction imaged with the G:Box Chemi XRQ (Syngene) imaging system. WB and Ponceau images were analysed with ImageJ software, WB band intensities normalized by either total protein or Beta-actin content and made relative to ACY-1215 1 μM (equivalent to 100%). ACY-1215 is a HDAC6 inhibitor, and is also known as ricolinostat, with chemical name 2-(diphenylamino)-N-[7-(hydroxyamino)-7-oxoheptyl]-5-pyrimidinecarboxamide. Percentage of band intensities was classified as follows: […]

Compound: CN1CCC(CNC(=O)c2ccnc(-c3cc(-c4noc(C(F)(F)F)n4)ccn3)c2)CC1 [Example 1am, N-((1-Methylpiperidin-4-yl)methyl)-4′-(5-(trifluoromethyl)-1,2,4-oxadiazol-3-yl)-[2,2′-bipyridine]-4-carboxamide]
- Cellular activity @1 uM: + (50-150)
- Cellular activity @5 uM: + (50-150)

Compound: Cn1ccnc1CCn1nc(-c2cc(-c3noc(C(F)(F)F)n3)ccn2)c2ncccc21 [Example 1aac]
- Cellular activity @1 uM: + (50-150)
- Cellular activity @5 uM: ++ (150-300)

Compound: COCCn1c(C(=O)N(C)C)cc2cc(-c3cc(-c4noc(C(F)(F)F)n4)ccn3)ncc21 [Example 1ar, 1-(2-Methoxyethyl)-N,N-dimethyl-5-(4-(5-(trifluoromethyl)-1,2,4-oxadiazol-3-yi)pyridin-2-yl)-1H-pyrrolo[2,3-c]pyridine-2-carboxamide]
- Cellular activity @1 uM: + (50-150)
- Cellular activity @5 uM: + (50-150)

Compound: FC(F)(F)c1nc(-c2ccnc(-n3ncc4cccnc43)c2)no1 [Example 6, 3-(2-(1H-Pyrazolo[3,4-b]pyridin-1-yl)pyridin-4-yl)-5-(trifluoromethyl)-1,2,4-oxadiazole]
- Cellular activity @1 uM: + (50-150)
- Cellular activity @5 uM: + (50-150)

Compound: FC(F)(F)c1nc(-c2ccnc(-c3cc4c(ccn4Cc4cccnc4)cn3)c2)no1 [Example 1av, 3-(2-(1-(Pyridin-3-ylmethyl)-1H-pyrrolo[3,2-c]pyridin-6-yl)pyridin-4-yl)-5-(trifluoromethyl)-1,2,4-oxadiazole]
- Cellular activity @1 uM: + (50-150)
- Cellular activity @5 uM: ++ (150-300)

Compound: COCCn1ncc2cc(-c3cc(-c4noc(C(F)(F)F)n4)ccn3)ncc21 [Example 1ay, 3-(2-(1-(2-Methoxyethyl)-1H-pyrazolo[3,4-c]pyridin-5-yl)pyridin-4-yl)-5-(trifluoromethyl)-1,2,4-oxadiazole]
- Cellular activity @1 uM: − (<50)
- Cellular activity @5 uM: + (50-150)

Compound: O=C(NC1CCCNC1)c1ccnc(-c2cc(-c3noc(C(F)(F)F)n3)ccn2)c1 (stereo not shown) [Example 1af, N-(Piperidin-3-yl)-4′-(5-(trifluoromethyl)-1,2,4-oxadiazol-3-yl)-[2,2′-bipyridine]-4-carboxamide]
- Cellular activity @1 uM: + (50-150)
- Cellular activity @5 uM: + (50-150)

Compound: FC1(F)CCN(CCOc2ccnc(-c3cc(-c4noc(C(F)(F)F)n4)ccn3)c2)CC1 [Example 1s, 3-(4′-(2-(4,4-Difluoropiperidin-1-yl)ethoxy)-[2,2′-bipyridin]-4-yl)-5-(trifluoromethyl)-1,2,4-oxadiazole]
- Cellular activity @1 uM: − (<50)
- Cellular activity @5 uM: + (50-150)

Compound: COCCn1nc(-c2cc(-c3noc(C(F)(F)F)n3)ccn2)c2ncccc21 [Example 1aaa, 3-(2-(1-(2-Methoxyethyl)-1H-pyrazolo[4,3-b]pyridin-3-yl)pyridin-4-yl)-5-(trifluoromethyl)-1,2,4-oxadiazole]
- Cellular activity @1 uM: + (50-150)
- Cellular activity @5 uM: + (50-150)

Compound: CCCCn1cc(CO)c2cc(-c3cc(-c4noc(C(F)(F)F)n4)ccn3)ncc21 [Example 1aj, (1-butyl-5-(4-(5-(trifluoromethyl)-1,2,4-oxadiazol-3-yl)pyridin-2-yl)-1H-pyrrolo[2,3-c]pyridin-3-yl)methanol]
- Cellular activity @1 uM: + (50-150)
- Cellular activity @5 uM: + (50-150)

Compound: CCCn1ccc2cc(-c3cc(-c4noc(C(F)(F)F)n4)ccn3)ncc21 [Example 1a, 3-(2-(1-Propyl-1H-pyrrolo[2,3-c]pyridin-5-yl)pyridin-4-yl)-5-(trifluoromethyl)-1,2,4-oxadiazole]
- Cellular activity @1 uM: − (<50)
- Cellular activity @5 uM: ++ (150-300)

Compound: CCN(CCCOc1ccc(-c2cc(-c3noc(C(F)(F)F)n3)ccn2)nc1)CCc1ccccc1 [Example 1p, N-Ethyl-N-phenethyl-3-((4′-(5-(trifluoromethyl)-1,2,4-oxadiazol-3-yl)-[2,2′-bipyridin]-5-yl)oxy)propan-1-amine]
- Cellular activity @1 uM: − (<50)
- Cellular activity @5 uM: ++ (150-300)

Compound: FC(F)(F)CN1CCC(n2ccc3cnc(-c4cc(-c5noc(C(F)(F)F)n5)ccn4)cc32)CC1 [Example 1ao, 3-(2-(1-(1-(2,2,2-Trifluoroethyl)piperidin-4-yl)-1H-pyrrolo[3,2-c]pyridin-6-yl)pyridin-4-yl)-5-(trifluoromethyl)-1,2,4-oxadiazole]
- Cellular activity @1 uM: + (50-150)
- Cellular activity @5 uM: ++ (150-300)

Compound: O=C(CCc1ccccc1)Nc1ccnc(-c2cc(-c3noc(C(F)(F)F)n3)ccn2)c1 [Example 1ad, 3-Phenyl-N-(4′-(5-(trifluoromethyl)-1,2,4-oxadiazol-3-yl)-[2,2′-bipyridin]-4-yl)propanamide]
- Cellular activity @1 uM: + (50-150)
- Cellular activity @5 uM: + (50-150)

Compound: CCCn1cc(COC)c2cc(-c3cc(-c4noc(C(F)(F)F)n4)ccn3)ncc21 [Example 1ai, 3-(2-(3-(Methoxymethyl)-1-propyl-1H-pyrrolo[2,3-c]pyridin-5-yl)pyridin-4-yl)-5-(trifluoromethyl)-1,2,4-oxadiazole]
- Cellular activity @1 uM: − (<50)
- Cellular activity @5 uM: + (50-150)

Compound: CN1CCC(CNC(=O)c2ccc(-c3cc(-c4noc(C(F)(F)F)n4)ccn3)nc2)CC1 [Example 1an, N-((1-Methylpiperidin-4-yl)methyl)-4′-(5-(trifluoromethyl)-1,2,4-oxadiazol-3-yl)-[2,2′-bipyridine]-5-carboxamide]
- Cellular activity @1 uM: + (50-150)
- Cellular activity @5 uM: + (50-150)

Compound: Cn1nc(-c2cc(-c3noc(C(F)(F)F)n3)ccn2)c2ncccc21 [Example 7a, 3-(2-(1-Methyl-1H-pyrazolo[4,3-b]pyridin-3-yl)pyridin-4-yl)-5-(trifluoromethyl)-1,2,4-oxadiazole]
- Cellular activity @1 uM: + (50-150)
- Cellular activity @5 uM: ++ (150-300)
